The structures appear in SMILES notation. Values after ≈ are worked out from the molar mass of the structure shown. Peptide text beside a SMILES is read from it.

Holding throughout (assay type): cell-based
For experiment [1], the system named is Streptococcus pneumoniae ATCC 49619 (QC). As to conditions: ATCC 49619. The protocol:
(§1) Each peptide was formulated in PBS buffer prior to testing. Peptides of SEQ ID NO:5 and SEQ ID NO:8 were brought up in 100% DMSO with 0.002% polysorbate-80 at 1.28 mg/mL (40× the highest final test concentration of 32 mcg/mL). Final test concentration of DMSO was 2.5% in the assay at the first dilution for those two compounds.
(§2) Mueller Hinton II broth (MHB II; BD; Lot Nos. 6258541 and 7143896) was used for MIC testing of aerobic organisms. 0.002% polysorbate 80 (P80) was added to the test medium.
(§3) MIC values were determined using a broth microdilution procedure described by CLSI (1, 3). Automated liquid handlers (Multidrop 384, Labsystems, Helsinki, Finland; Biomek 2000 and Biomek FX, Beckman Coulter, Fullerton CA) were used to conduct serial dilutions and liquid transfers.
(§4) To prepare the drug mother plates, which would provide the serial peptide dilutions for the replicate daughter plates, the wells of columns 2-12 of standard 96-well microdilution plates (Costar 3795) were filled with 150 μl of the designated diluent for each row of peptide. The test articles and comparator compounds (300 μl at 40× the highest concentration to be tested) were dispensed into the appropriate wells in column 1. The Biomek 2000 was then used to make 2-fold serial dilutions in the mother plates from column 1 through column 11. The wells of Column 12 contained no drug and served as the organism growth control wells for the assay.
(§5) The daughter plates were loaded with 185 μL per well of MHB II using the Multidrop 384. The daughter plates were completed on the Biomek FX instrument which transferred 5 uL of peptide solution from each well of a mother plate to the corresponding well of each daughter plate in a single step. A standardized inoculum of each test organism was prepared per CLSI methods. The inoculum for each organism was dispensed into sterile reservoirs divided by length (Beckman Coulter), and the Biomek 2000 was used to inoculate the plates. Daughter plates were placed on the Biomek 2000 work surface in reverse orientation so that inoculation took place from low to high drug concentration. The plates were then inoculated with 10 μL of the inoculum resulting in a final cell density of approximately 5×10^5 CFU/mL, per well.
(§6) Plates were stacked 3-4 high, covered with a lid on the top plate, placed in plastic bags, and incubated at 35° C. for 16 to 20 hrs. Following incubation, the microplates were removed from the incubator and viewed from the bottom using a plate viewer. […] The MIC was read and recorded as the lowest concentration of peptide that inhibited visible growth of the organism.

For experiment [2], the system named is Staphylococcus aureus ATCC 29213 (MSSA; QC). As to conditions: ATCC 29213. How it is done:
as §1, §2, §3, §4, §5, §6

Experiment [3] concerns Enterococcus faecalis ATCC 700802 (V583 VRE). As to conditions: ATCC 700802. The protocol: as §1, §2, §3, §4, §5, §6
The test system of experiment [4] is Enterococcus faecalis ATCC 29212 (VSE; QC). To be noted: ATCC 29212. The protocol: as §1, §2, §3, §4, §5, §6
The test system of experiment [5] is Enterococcus faecium ATCC 51559 (VRE). To be noted: ATCC 51559. The protocol:
as §1, §2, §3, §4, §5, §6

Experiment [6] has as its system Acinetobacter baumannii ATCC 19606 (non-MDR). As to conditions: ATCC 19606. How it is done:
as §1, §2, §3, §4, §5, §6

The test system of experiment [7] is Streptococcus pyogenes ATCC 49399. As to conditions: ATCC 49399. The protocol:
as §1, §2, §3, §4, §5, §6

Experiment [8] relates to Escherichia coli ATCC 35218 (ESBL). As to conditions: ATCC 35218. The protocol: as §1, §2, §3, §4, §5, §6
Experiment [9] concerns Staphylococcus aureus ATCC 43300 (MRSA). As to conditions: ATCC 43300. How it is done:
as §1, §2, §3, §4, §5, §6

For experiment [10], the system named is Klebsiella pneumoniae ATCC BAA-1705 (KPC). As to conditions: ATCC BAA-1705. How it is done:
as §1, §2, §3, §4, §5, §6

The test system of experiment [11] is Pseudomonas aeruginosa ATCC BAA-2109 (MDR). To be noted: ATCC BAA-2109. How it is done: as §1, §2, §3, §4, §5, §6
For experiment [12], the system named is Staphylococcus aureus NRS382 (USA100; HA-MRSA). As to conditions: USA100. The protocol:
as §1, §2, §3, §4, §5, §6

Experiment [13] relates to Pseudomonas aeruginosa ATCC 27853 (non-MDR; QC). As to conditions: ATCC 27853. How it is done:
as §1, §2, §3, §4, §5, §6

Experiment [14] deals with Escherichia coli ATCC BAA-2471 (NDM-1). To be noted: ATCC BAA-2471. How it is done: as §1, §2, §3, §4, §5, §6
Experiment [15] deals with Escherichia coli ATCC 25922 (QC). As to conditions: ATCC 25922. How it is done:
as §1, §2, §3, §4, §5, §6

The test system of experiment [16] is Acinetobacter baumannii ATCC BAA-1797 (MDR). To be noted: ATCC BAA-1797. How it is done:
as §1, §2, §3, §4, §5, §6

In the case of `CC[C@H](C)[C@H](N)C(=O)N[C@@H](CCCNC(=N)N)C(=O)N[C@@H](CCCNC(=N)N)C(=O)N[C@@H](CCCNC(=N)N)C(=O)N[C@H](C(=O)N[C@@H](CCCNC(=N)N)C(=O)N[C@@H](CCCNC(=N)N)C(=O)N[C@H](C(=O)N[C@@H](CCCNC(=N)N)C(=O)N[C@@H](CCCNC(=N)N)C(=O)N[C@@H](CCCNC(=N)N)C(=O)N[C@H](C(=O)N[C@@H](CCCNC(=N)N)C(=O)N[C@@H](CCCNC(=N)N)C(=O)N[C@H](C(=O)N[C@@H](CCCNC(=N)N)C(=O)N[C@@H](CCCNC(=N)N)C(=O)N[C@@H](CCCNC(=N)N)C(=O)N[C@H](C(=O)N[C@@H](CCCNC(=N)N)C(=O)N[C@@H](CCCNC(=N)N)C(=O)O)[C@@H](C)CC)[C@@H](C)CC)[C@@H](C)CC)[C@@H](C)CC)[C@@H](C)CC` [SEQ ID NO: 3] (H-IRRRIRRIRRRIRRIRRRIRR-OH; N-terminus and C-terminus assumed), the minimal inhibitory concentration (MIC) in experiment [1] was 32 mg/L (≈ 10.5 µM); in [2], 8 mg/L (≈ 2.63 µM); in experiment [3] it was greater than 32 mg/L; in experiment [4], 32 mg/L (≈ 10.5 µM); in experiment [5], 4 mg/L (≈ 1.32 µM); in experiment [6], 8 mg/L (≈ 2.63 µM). Further, the MIC in experiment [7] amounted to 16 mg/L (≈ 5.26 µM); in [8] it was 4 mg/L (≈ 1.32 µM); in experiment [9], 8 mg/L (≈ 2.63 µM); in experiment [10], 32 mg/L (≈ 10.5 µM); in experiment [11], 2 mg/L (≈ 0.658 µM); in [12] it was 8 mg/L (≈ 2.63 µM). Also, the MIC in experiment [13], in experiment [14] and in experiment [15] was 4 mg/L (≈ 1.32 µM) each time.
Consider `CC[C@H](C)[C@H](N)C(=O)N[C@@H](CCCNC(=N)N)C(=O)N[C@@H](CCCNC(=N)N)C(=O)N[C@H](C(=O)N[C@H](C(=O)N[C@@H](CCCNC(=N)N)C(=O)N[C@@H](CCCNC(=N)N)C(=O)N[C@H](C(=O)N[C@@H](CCCNC(=N)N)C(=O)N[C@@H](CCCNC(=N)N)C(=O)N[C@H](C(=O)N[C@H](C(=O)N[C@@H](CCCNC(=N)N)C(=O)N[C@@H](CCCNC(=N)N)C(=O)N[C@H](C(=O)N[C@@H](CCCNC(=N)N)C(=O)N[C@@H](CCCNC(=N)N)C(=O)N[C@H](C(=O)N[C@H](C(=O)N[C@@H](CCCNC(=N)N)C(=O)N[C@@H](CCCNC(=N)N)C(=O)O)[C@@H](C)CC)[C@@H](C)CC)[C@@H](C)CC)[C@@H](C)CC)[C@@H](C)CC)[C@@H](C)CC)[C@@H](C)CC)[C@@H](C)CC` [SEQ ID NO: 4] (H-IRRIIRRIRRIIRRIRRIIRR-OH; N-terminus and C-terminus assumed), for which the minimal inhibitory concentration (MIC) came out at 16 mg/L (≈ 5.5 µM) in experiment [1]; 8 mg/L (≈ 2.75 µM) in [2]; 8 mg/L (≈ 2.75 µM) in [3]; 8 mg/L (≈ 2.75 µM) in experiment [4]; 4 mg/L (≈ 1.37 µM) in experiment [5]; 8 mg/L (≈ 2.75 µM) in [6]. Besides, the MIC amounted to 16 mg/L (≈ 5.5 µM) in [7]; 8 mg/L (≈ 2.75 µM) in [8]; 4 mg/L (≈ 1.37 µM) in experiment [9]; 32 mg/L (≈ 11 µM) in [10]; 4 mg/L (≈ 1.37 µM) in experiment [11]; 4 mg/L (≈ 1.37 µM) in experiment [12]. Besides, the MIC worked out at 8 mg/L (≈ 2.75 µM) in [13], 8 mg/L (≈ 2.75 µM) in experiment [16], 4 mg/L (≈ 1.37 µM) in experiment [14] and 4 mg/L (≈ 1.37 µM) in experiment [15].
As to `CC(C)[C@H](N)C(=O)N[C@@H](Cc1c[nH]c2ccccc12)C(=O)N[C@@H](CCCNC(=N)N)C(=O)N[C@@H](Cc1c[nH]c2ccccc12)C(=O)N[C@H](C(=O)N[C@@H](CCCNC(=N)N)C(=O)N[C@@H](CCCNC(=N)N)C(=O)N[C@H](C(=O)N[C@@H](Cc1c[nH]c2ccccc12)C(=O)N[C@@H](CCCNC(=N)N)C(=O)N[C@@H](Cc1c[nH]c2ccccc12)C(=O)N[C@H](C(=O)N[C@@H](CCCNC(=N)N)C(=O)N[C@@H](CCCNC(=N)N)C(=O)N[C@H](C(=O)N[C@@H](Cc1c[nH]c2ccccc12)C(=O)N[C@@H](CCCNC(=N)N)C(=O)N[C@@H](Cc1c[nH]c2ccccc12)C(=O)N[C@H](C(=O)N[C@@H](CCCNC(=N)N)C(=O)N[C@@H](CCCNC(=N)N)C(=O)O)C(C)C)C(C)C)C(C)C)C(C)C)C(C)C` [SEQ ID NO: 5] (H-VWRWVRRVWRWVRRVWRWVRR-OH; N-terminus and C-terminus assumed), the MIC in [1] amounted to 32 mg/L (≈ 10.2 µM); in experiment [2] it was 16 mg/L (≈ 5.1 µM); in experiment [3], 16 mg/L (≈ 5.1 µM); in experiment [4], 16 mg/L (≈ 5.1 µM); in experiment [5], 8 mg/L (≈ 2.55 µM); in experiment [6], 16 mg/L (≈ 5.1 µM). Also, the MIC in experiment [7] was 32 mg/L (≈ 10.2 µM); in experiment [8], 16 mg/L (≈ 5.1 µM); in experiment [9], 8 mg/L (≈ 2.55 µM); in experiment [10], greater than 32 mg/L; in [11], 16 mg/L (≈ 5.1 µM); in experiment [12], 8 mg/L (≈ 2.55 µM). The minimal inhibitory concentration (MIC) in experiment [13] was greater than 32 mg/L; in [14], 32 mg/L (≈ 10.2 µM); in experiment [15] it was 16 mg/L (≈ 5.1 µM).
Turning to `CC(C)[C@H](N)C(=O)N[C@@H](Cc1c[nH]c2ccccc12)C(=O)N[C@@H](CCCNC(=N)N)C(=O)N[C@@H](Cc1c[nH]c2ccccc12)C(=O)N[C@H](C(=O)N[C@@H](CCCNC(=N)N)C(=O)N[C@@H](CCCNC(=N)N)C(=O)N[C@H](C(=O)N[C@@H](Cc1c[nH]c2ccccc12)C(=O)N[C@@H](CCCNC(=N)N)C(=O)N[C@@H](Cc1c[nH]c2ccccc12)C(=O)N[C@H](C(=O)N[C@@H](CCCNC(=N)N)C(=O)N[C@@H](CCCNC(=N)N)C(=O)O)C(C)C)C(C)C)C(C)C` [SEQ ID NO: 6] (H-VWRWVRRVWRWVRR-OH; N-terminus and C-terminus assumed), the MIC was 8 mg/L (≈ 3.82 µM) in [1]; 0.5 mg/L (≈ 0.238 µM) in [2]; 4 mg/L (≈ 1.91 µM) in [3]; 2 mg/L (≈ 0.954 µM) in [4]; 0.5 mg/L (≈ 0.238 µM) in experiment [5]; 0.5 mg/L (≈ 0.238 µM) in experiment [6]. The MIC in experiment [7] is 4 mg/L (≈ 1.91 µM); in experiment [8], 1 mg/L (≈ 0.477 µM); in experiment [9], 0.5 mg/L (≈ 0.238 µM); in experiment [10], 4 mg/L (≈ 1.91 µM); in experiment [11], 8 mg/L (≈ 3.82 µM); in experiment [12], 0.5 mg/L (≈ 0.238 µM). The MIC in experiment [13] turned out to be 16 mg/L (≈ 7.63 µM); in experiment [16] it was 0.5 mg/L (≈ 0.238 µM); in [14] it was 1 mg/L (≈ 0.477 µM); in [15], 2 mg/L (≈ 0.954 µM).

These data come from patent US20240115654A1, “INTRAVENOUS ADMINISTRATION OF ENGINEERED ANTIMICROBIAL AMPHIPHILIC PEPTIDES” (priority 2021, published 2024).
